Results from article PMC5350031 (Circulation, 2017).
Where two headings read alike, the source gives them in different places.

Assays:
Tm-E54K and NTG mice = test: Echocardiography, cardiac function and morphology after three months treatment; type: in vivo, mouse
[1] = system: detergent-extracted fiber bundles of NTG and Tm-E54K mice; type: in vivo, mouse; conditions: 3 months treatment; for Hill Coefficient / Max. Tension / pCa50 (Ca^2+ concentration at half-maximal tension): Mean ± SEM, n = 6–8 fibers
[2] = system: hearts of Tm-E54K and NTG mice; test: Histology, cell cross-sectional area; type: in vivo, mouse
[3] = system: myofilament proteins (MLC2v, TnT, cTnI, cMyBP-C); test: Myofilament protein phosphorylation in hearts of chronically treated mice; type: in vivo, mouse
[4] = system: β-myosin heavy chain (β-MHC); test: β-MHC protein expression in hearts of chronically treated mice; type: in vivo, mouse; conditions: Tm-E54K hearts, chronic treatment; untreated Tm-E54K approximately 30%
[5] = system: RSK3, MYPT1/2 and SRF phosphorylation in neonatal rat ventricular myocytes (NRVM); type: cell-based
[6] = system: Akt, GSK-3β, β-catenin, phospholamban, ERK1/2, RSK3, SRF, MYPT1/2, SERCA2; test: Western blot of signaling pathways in hearts of chronically treated mice; type: in vivo, mouse
[7] = Tm-E54K hearts, N = 4–6 hearts per group

CCCCc1nc(Cl)c(CO)n1Cc1ccc(-c2ccccc2-c2nn[nH]n2)cc1 [losartan]
cardiac output (in words) (Tm-E54K and NTG mice): did not have improved cardiac output
heart rate (in words) (Tm-E54K and NTG mice): nor an increase in heart rate
systolic / cardiac function (in words) (Tm-E54K and NTG mice; vs. Tm-E54K untreated): no changes in cardiac function
maximum tension generation (in words) ([1]; NTG mice): decrease in maximum tension generation
Hill Coefficient ([1]; NTG mice): 2.10 ± 0.12
Max. Tension ([1]; NTG mice): 25.73 ± 3.31 ^† mN/mm^2
pCa50 (Ca^2+ concentration at half-maximal tension) ([1]; NTG mice): significant decrease in pCa50 compared to both TRV067 and untreated NTG groups
pCa50 (Ca^2+ concentration at half-maximal tension) ([1]; NTG mice, listed as Losartan): 5.60 ± 0.02 ^†
maximum tension generation (in words) ([1]; Tm-E54K mice): no significant effect
Hill Coefficient ([1]; Tm-E54K mice): 2.00 ± 0.08
Max. Tension ([1]; Tm-E54K mice): 27.29 ± 1.07 ^∥ mN/mm^2
cross-sectional cell area (in words) ([2]; NTG mice): significant decrease
cross-sectional cell area (in words) ([2]; Tm-E54K mice): no effect
MLC2v phosphorylation (in words) ([3]; Phos-Tag gel electrophoresis, NTG mice, vs. NTG untreated): significantly decreased
TnT phosphorylation (in words) ([3]; ProQ diamond, Tm-E54K mice, vs. TRV067-treated Tm-E54K, N = 4–6 hearts per group): significant decrease
cMyBP-C phosphorylation at PKA sites (in words) ([3]; mice treated with TRV067 or losartan): did not observe an increase in other PKA phosphorylatable sites, such as cMyBP-C
β-MHC expression, % of the isoform content [4]: approximately 10%
MYPT1/2 phosphorylation (in words) [5]: no effect
RSK3 phosphorylation (in words) [5]: no effect
SRF phosphorylation (in words) [5]: no effect
MYPT1/2 phosphorylation (in words) ([6]; NTG and Tm-E54K mice): no effect
RSK3 phosphorylation (in words) ([6]; NTG and Tm-E54K mice): no effect
SRF phosphorylation (in words) ([6]; NTG and Tm-E54K mice): no effect
phospholamban (PLN) phosphorylation at S16 (in words) ([6]; NTG mice, vs. untreated controls): increase
SERCA2 protein expression (in words) ([6]; Tm-E54K and NTG mice, vs. untreated): no effect
Akt phosphorylation at S473 (in words) [6, 7]: decreased
GSK-3β phosphorylation at S9 (in words) [6, 7]: decreased
β-catenin phosphorylation (in words) [6, 7]: increase
phospholamban (PLN) phosphorylation at S16 (in words) ([6]; Tm-E54K mice): increase
phospholamban (PLN) phosphorylation at T17 (in words) ([6]; Tm-E54K mice): not the T17 site
